Reference: patent US10231954B2, “Neurodegenerative therapies” (LYTIX BIOPHARMA AS, priority 2014, dated 2019)

Key:
Format in all cases: biochemical
[1] = molecular target: MKK1 (Homo sapiens, UniProt Q02750); assay: Kinase profiling MKK1; conditions: 100 micromolar inhibitor concentration, 100 is no change; for remaining activity at 100 µM: read-out: residual kinase activity, MKK1
Description: (§1) Any value less that 25 is considered to be highly significant inhibition.

[2] = molecular target: PIM1 (Homo sapiens, UniProt P11309); assay: Kinase profiling PIM1; conditions: 100 micromolar inhibitor concentration, 100 is no change; for remaining activity at 100 µM: read-out: residual kinase activity, PIM1
Description: as §1

[3] = molecular target: BTK (Homo sapiens, UniProt Q06187); assay: Kinase profiling BTK; conditions: 100 micromolar inhibitor concentration, 100 is no change; for remaining activity at 100 µM: read-out: residual kinase activity, BTK
Description: as §1

[4] = test system: VEG-FR; assay: Kinase profiling VEG-FR; conditions: 100 micromolar inhibitor concentration; 100 is no change
Description: as §1

[5] = molecular target: JNK3 (Homo sapiens, UniProt P53779); assay: Kinase profiling JNK3; conditions: 100 micromolar inhibitor concentration, 100 is no change; for remaining activity at 100 µM: read-out: residual kinase activity, JNK3
Description: as §1

[6] = molecular target: PKBa (Homo sapiens, UniProt P31749); assay: Kinase profiling PKBa; conditions: for residual kinase activity, PKBa: 100 micromolar inhibitor concentration, 100 is no change; for remaining activity at 100 µM: read-out: residual kinase activity, PKBa
Description: as §1

[7] = molecular target: p38b MAPK (Homo sapiens, UniProt Q15759); assay: Kinase profiling p38b MAPK; conditions: 100 micromolar inhibitor concentration, 100 is no change; for remaining activity at 100 µM: read-out: residual kinase activity, p38b MAPK
Description: as §1

[8] = molecular target: Src (Homo sapiens, UniProt P12931); assay: Kinase profiling Src; conditions: 100 micromolar inhibitor concentration, 100 is no change; for remaining activity at 100 µM: read-out: residual kinase activity, Src
Description: as §1

[9] = molecular target: T1, IRAK4 (Homo sapiens, UniProt Q9NWZ3); assay: Kinase profiling IRAK4; conditions: 100 micromolar inhibitor concentration, 100 is no change; for remaining activity at 100 µM: read-out: residual kinase activity, IRAK4
T1 sequence (Q9NWZ3 1-460): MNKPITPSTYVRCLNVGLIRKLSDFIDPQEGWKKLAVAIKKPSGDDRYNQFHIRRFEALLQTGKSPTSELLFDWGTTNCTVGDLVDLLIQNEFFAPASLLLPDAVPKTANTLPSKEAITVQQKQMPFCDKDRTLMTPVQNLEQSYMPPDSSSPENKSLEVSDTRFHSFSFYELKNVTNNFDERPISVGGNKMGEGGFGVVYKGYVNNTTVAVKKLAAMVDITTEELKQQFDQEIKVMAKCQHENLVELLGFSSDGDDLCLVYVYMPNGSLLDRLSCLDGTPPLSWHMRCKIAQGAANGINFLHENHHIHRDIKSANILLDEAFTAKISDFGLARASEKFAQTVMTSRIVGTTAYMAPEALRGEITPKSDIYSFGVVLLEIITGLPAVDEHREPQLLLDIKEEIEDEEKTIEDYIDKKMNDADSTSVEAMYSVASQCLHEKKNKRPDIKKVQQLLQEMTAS
Description: as §1

[10] = molecular target: T2, SGK1 (Homo sapiens, UniProt O00141); assay: Kinase profiling SGK1; conditions: 100 micromolar inhibitor concentration, 100 is no change; for remaining activity at 100 µM: read-out: residual kinase activity, SGK1
T2 sequence (O00141 1-431): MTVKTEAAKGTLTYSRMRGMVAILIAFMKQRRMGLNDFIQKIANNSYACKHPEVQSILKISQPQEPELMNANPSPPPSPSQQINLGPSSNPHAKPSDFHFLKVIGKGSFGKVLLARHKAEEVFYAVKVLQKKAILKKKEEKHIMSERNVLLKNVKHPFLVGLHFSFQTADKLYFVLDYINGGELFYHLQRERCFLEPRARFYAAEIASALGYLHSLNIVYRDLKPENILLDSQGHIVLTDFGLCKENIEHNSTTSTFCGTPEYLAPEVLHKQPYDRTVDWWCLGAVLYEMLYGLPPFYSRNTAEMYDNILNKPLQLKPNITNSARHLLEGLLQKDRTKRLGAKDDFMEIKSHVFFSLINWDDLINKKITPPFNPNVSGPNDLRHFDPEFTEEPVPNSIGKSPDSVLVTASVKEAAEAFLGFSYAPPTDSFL
Description: as §1

[11] = molecular target: p38a MAPK (Homo sapiens, UniProt Q16539); assay: Kinase profiling p38a MAPK; conditions: 100 micromolar inhibitor concentration, 100 is no change; for remaining activity at 100 µM: read-out: residual kinase activity, p38a MAPK
Description: as §1

[12] = molecular target: TrkA (Homo sapiens, UniProt P04629); assay: Kinase profiling TrkA; conditions: 100 micromolar inhibitor concentration, 100 is no change; for remaining activity at 100 µM: read-out: residual kinase activity, TrkA
Description: as §1

[13] = molecular target: SRPK1 (Homo sapiens, UniProt Q96SB4); assay: Kinase profiling SRPK1; conditions: 100 micromolar inhibitor concentration, 100 is no change; for remaining activity at 100 µM: read-out: residual kinase activity, SRPK1
Description: as §1

[14] = molecular target: T3, PDK1 (Homo sapiens, UniProt O15530); assay: Kinase profiling PDK1; conditions: 100 micromolar inhibitor concentration, 100 is no change; for remaining activity at 100 µM: read-out: residual kinase activity, PDK1
T3 sequence (O15530 1-556): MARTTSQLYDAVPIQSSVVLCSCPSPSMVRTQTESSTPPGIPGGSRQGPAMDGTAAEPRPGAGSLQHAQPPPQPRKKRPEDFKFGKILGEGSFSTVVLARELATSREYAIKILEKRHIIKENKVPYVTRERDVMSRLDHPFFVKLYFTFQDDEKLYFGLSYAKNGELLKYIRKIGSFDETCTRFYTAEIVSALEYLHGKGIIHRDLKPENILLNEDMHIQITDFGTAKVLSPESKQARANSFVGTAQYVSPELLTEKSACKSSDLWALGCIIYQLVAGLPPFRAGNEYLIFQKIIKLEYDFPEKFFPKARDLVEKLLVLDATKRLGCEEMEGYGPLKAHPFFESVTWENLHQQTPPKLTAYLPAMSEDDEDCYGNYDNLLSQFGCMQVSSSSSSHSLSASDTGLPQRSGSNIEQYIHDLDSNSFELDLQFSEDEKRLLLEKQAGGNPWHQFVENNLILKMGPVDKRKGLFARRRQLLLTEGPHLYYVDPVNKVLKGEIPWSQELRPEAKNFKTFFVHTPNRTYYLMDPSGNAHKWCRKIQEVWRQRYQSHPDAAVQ
Description: as §1

[15] = molecular target: RIPK2 (Homo sapiens, UniProt O43353); assay: Kinase profiling RIPK2; conditions: 100 micromolar inhibitor concentration, 100 is no change; for remaining activity at 100 µM: read-out: residual kinase activity, RIPK2
Description: as §1

[16] = molecular target: MARK3 (Homo sapiens, UniProt P27448); assay: Kinase profiling MARK3; conditions: 100 micromolar inhibitor concentration, 100 is no change; for remaining activity at 100 µM: read-out: residual kinase activity, MARK3
Description: as §1

[17] = molecular target: EF2K (Homo sapiens, UniProt O00418); assay: Kinase profiling EF2K; conditions: 100 micromolar inhibitor concentration, 100 is no change; for remaining activity at 100 µM: read-out: residual kinase activity, EF2K
Description: as §1

[18] = molecular target: MKK2 (Homo sapiens, UniProt P36507); assay: Kinase profiling MKK2; conditions: 100 micromolar inhibitor concentration, 100 is no change; for remaining activity at 100 µM: read-out: residual kinase activity, MKK2
Description: as §1

[19] = molecular target: PRK2 (Homo sapiens, UniProt Q16513); assay: Kinase profiling PRK2; conditions: 100 micromolar inhibitor concentration, 100 is no change; for remaining activity at 100 µM: read-out: residual kinase activity, PRK2
Description: as §1

Chain of MARK3 (P27448 whole entry, species assumed): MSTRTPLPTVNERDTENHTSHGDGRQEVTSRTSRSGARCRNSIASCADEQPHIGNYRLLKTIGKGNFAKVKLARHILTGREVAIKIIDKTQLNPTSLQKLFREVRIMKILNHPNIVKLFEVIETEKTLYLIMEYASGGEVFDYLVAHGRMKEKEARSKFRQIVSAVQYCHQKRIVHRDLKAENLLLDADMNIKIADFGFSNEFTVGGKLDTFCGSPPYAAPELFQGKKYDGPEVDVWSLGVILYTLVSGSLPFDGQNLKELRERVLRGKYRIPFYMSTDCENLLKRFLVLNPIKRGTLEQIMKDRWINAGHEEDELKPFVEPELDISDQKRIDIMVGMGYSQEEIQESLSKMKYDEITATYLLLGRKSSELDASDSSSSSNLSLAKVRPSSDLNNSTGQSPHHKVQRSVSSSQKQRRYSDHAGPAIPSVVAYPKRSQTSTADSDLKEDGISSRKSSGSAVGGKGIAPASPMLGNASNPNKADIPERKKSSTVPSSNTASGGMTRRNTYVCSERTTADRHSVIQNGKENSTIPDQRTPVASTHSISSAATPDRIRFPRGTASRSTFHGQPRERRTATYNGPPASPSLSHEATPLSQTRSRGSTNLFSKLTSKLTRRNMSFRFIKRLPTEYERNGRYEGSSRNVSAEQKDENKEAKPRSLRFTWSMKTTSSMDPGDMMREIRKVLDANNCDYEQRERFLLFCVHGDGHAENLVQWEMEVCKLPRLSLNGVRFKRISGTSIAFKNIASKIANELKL
Chain of TrkA (P04629 33-796, species assumed): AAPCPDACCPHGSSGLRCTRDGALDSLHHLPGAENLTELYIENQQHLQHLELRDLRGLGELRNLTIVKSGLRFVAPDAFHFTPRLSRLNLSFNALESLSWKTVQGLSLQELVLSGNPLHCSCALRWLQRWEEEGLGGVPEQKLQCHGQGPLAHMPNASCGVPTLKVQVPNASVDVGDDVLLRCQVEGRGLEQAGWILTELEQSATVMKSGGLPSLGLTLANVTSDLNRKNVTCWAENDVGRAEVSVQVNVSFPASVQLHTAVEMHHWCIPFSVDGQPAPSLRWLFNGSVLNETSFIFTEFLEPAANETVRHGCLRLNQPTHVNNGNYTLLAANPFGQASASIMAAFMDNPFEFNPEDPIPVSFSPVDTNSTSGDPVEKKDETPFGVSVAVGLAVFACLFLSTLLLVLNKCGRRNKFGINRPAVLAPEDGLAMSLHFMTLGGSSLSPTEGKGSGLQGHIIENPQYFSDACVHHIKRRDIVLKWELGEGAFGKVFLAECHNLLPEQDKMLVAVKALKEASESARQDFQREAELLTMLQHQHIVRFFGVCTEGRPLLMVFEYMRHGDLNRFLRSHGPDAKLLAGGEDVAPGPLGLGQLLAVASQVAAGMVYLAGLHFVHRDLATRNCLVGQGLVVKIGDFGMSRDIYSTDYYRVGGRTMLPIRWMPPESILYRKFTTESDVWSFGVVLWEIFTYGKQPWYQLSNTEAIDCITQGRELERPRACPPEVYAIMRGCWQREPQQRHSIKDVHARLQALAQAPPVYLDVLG
Chain of p38b MAPK (Q15759 whole entry): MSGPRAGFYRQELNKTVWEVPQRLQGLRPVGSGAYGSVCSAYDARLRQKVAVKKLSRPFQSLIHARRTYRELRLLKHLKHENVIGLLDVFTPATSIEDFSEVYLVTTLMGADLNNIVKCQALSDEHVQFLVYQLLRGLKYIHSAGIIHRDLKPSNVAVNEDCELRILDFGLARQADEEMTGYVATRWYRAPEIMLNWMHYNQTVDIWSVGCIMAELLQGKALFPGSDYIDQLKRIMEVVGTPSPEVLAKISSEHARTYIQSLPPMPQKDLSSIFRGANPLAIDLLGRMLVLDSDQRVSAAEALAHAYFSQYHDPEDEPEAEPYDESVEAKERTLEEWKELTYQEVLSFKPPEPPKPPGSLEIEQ
Chain of RIPK2 (O43353 whole entry, species assumed): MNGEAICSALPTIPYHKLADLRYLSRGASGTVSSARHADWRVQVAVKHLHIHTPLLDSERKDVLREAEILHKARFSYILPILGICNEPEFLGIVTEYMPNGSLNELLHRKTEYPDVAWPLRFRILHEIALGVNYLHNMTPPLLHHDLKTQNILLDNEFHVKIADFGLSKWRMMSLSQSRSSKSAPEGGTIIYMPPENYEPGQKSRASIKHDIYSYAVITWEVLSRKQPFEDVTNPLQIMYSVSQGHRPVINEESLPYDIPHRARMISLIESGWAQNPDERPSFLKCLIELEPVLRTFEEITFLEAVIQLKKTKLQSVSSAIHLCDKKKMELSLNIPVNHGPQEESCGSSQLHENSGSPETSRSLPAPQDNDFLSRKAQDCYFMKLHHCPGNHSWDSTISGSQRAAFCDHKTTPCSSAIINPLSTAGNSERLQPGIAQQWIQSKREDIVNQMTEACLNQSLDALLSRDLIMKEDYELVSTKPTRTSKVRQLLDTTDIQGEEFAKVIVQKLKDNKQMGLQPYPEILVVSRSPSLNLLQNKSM
Chain of SRPK1 (Q96SB4 whole entry, species assumed): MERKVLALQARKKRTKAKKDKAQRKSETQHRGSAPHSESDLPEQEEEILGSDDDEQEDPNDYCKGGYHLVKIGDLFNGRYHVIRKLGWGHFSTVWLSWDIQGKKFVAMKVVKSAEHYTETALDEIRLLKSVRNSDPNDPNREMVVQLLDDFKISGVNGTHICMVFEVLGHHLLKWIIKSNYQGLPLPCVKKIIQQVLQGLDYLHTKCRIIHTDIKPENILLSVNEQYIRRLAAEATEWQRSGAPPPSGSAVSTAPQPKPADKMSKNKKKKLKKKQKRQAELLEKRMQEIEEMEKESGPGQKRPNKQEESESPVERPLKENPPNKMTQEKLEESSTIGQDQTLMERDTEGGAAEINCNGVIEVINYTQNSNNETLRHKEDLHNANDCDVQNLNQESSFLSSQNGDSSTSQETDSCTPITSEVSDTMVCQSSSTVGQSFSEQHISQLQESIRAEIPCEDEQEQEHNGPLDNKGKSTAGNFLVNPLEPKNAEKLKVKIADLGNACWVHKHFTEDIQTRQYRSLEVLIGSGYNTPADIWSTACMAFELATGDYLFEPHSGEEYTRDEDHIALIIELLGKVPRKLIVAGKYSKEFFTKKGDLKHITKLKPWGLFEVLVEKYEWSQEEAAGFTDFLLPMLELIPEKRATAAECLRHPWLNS
Chain of PKBa (P31749 whole entry): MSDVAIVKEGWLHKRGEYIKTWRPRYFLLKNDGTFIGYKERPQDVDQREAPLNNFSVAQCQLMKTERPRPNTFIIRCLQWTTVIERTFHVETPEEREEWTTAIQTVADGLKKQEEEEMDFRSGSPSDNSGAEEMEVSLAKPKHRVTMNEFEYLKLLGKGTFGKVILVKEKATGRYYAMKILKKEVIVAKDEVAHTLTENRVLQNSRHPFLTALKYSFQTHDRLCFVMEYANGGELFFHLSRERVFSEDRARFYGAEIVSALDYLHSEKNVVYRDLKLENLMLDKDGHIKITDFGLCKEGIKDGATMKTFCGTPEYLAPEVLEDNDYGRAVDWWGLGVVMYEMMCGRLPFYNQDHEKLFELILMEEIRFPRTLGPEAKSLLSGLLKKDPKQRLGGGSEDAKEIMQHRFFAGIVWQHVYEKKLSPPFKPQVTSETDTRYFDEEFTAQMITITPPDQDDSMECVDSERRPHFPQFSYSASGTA
Chain of PRK2 (Q16513 whole entry, species assumed): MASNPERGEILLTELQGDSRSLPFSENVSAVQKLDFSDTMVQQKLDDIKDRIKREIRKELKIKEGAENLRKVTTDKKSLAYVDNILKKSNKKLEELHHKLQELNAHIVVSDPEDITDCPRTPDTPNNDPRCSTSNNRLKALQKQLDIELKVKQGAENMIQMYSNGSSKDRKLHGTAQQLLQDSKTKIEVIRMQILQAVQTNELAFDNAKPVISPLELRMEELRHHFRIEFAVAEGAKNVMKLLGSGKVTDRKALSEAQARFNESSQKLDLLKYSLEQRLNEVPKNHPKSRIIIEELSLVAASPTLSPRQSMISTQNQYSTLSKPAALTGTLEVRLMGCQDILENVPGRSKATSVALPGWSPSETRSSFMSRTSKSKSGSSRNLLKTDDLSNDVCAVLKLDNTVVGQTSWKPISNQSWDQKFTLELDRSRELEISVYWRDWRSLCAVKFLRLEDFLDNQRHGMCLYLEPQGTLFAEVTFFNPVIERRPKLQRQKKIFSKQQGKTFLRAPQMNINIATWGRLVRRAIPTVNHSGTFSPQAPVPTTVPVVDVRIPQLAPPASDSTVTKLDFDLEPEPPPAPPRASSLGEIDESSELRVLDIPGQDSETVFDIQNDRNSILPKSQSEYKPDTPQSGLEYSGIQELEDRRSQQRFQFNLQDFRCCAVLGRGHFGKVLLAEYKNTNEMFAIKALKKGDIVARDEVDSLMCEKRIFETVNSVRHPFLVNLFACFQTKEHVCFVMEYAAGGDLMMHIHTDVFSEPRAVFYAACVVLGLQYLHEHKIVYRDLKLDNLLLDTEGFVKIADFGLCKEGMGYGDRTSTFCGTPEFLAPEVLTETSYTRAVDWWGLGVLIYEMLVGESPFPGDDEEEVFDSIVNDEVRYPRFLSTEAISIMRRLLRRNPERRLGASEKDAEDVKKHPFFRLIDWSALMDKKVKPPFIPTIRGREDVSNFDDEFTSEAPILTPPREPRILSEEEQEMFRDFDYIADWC
Chain of MKK1 (Q02750 whole entry, species assumed): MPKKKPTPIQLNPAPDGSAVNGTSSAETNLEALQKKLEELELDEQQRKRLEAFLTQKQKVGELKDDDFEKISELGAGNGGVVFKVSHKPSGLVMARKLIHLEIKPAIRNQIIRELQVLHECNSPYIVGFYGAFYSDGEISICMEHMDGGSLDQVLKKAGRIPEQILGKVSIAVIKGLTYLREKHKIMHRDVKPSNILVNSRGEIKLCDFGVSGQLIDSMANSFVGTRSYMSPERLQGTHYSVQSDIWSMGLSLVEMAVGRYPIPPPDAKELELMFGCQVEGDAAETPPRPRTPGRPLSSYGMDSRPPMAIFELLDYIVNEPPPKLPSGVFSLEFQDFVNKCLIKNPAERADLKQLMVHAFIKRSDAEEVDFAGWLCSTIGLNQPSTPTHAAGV

## O=C(Nc1nc2cc(O)ccc2s1)c1cccnc1 [Compound 03-33]
[1]
  residual kinase activity, MKK1: 89
[2]
  residual kinase activity, PIM1: 25
[3]
  residual kinase activity, BTK: 110
[4]
  residual kinase activity, VEG-FR: 50
[5]
  residual kinase activity, JNK3: 76
[6]
  residual kinase activity, PKBa: 100
[7]
  residual kinase activity, p38b MAPK: 87
[8]
  residual kinase activity, Src: 75
[9]
  residual kinase activity, IRAK4: 42
[10]
  residual kinase activity, SGK1: 86
[11]
  residual kinase activity, p38a MAPK: 105
[12]
  residual kinase activity, TrkA: 51
[13]
  residual kinase activity, SRPK1: 58
[14]
  residual kinase activity, PDK1: 100
[15]
  residual kinase activity, RIPK2: 20
[16]
  residual kinase activity, MARK3: 85
[17]
  residual kinase activity, EF2K: 106
[18]
  residual kinase activity, MKK2: 85
[19]
  residual kinase activity, PRK2: 85

## O=C(Nc1nc2ccc(O)cc2s1)c1ccccc1 [Compound 03-60]
[1]
  residual kinase activity, MKK1: 49
[2]
  residual kinase activity, PIM1: 35
[3]
  residual kinase activity, BTK: 59
[4]
  residual kinase activity, VEG-FR: 5
[5]
  residual kinase activity, JNK3: 48
[6]
  residual kinase activity, PKBa: 79
[7]
  residual kinase activity, p38b MAPK: 76
[8]
  residual kinase activity, Src: 33
[9]
  residual kinase activity, IRAK4: 22
[10]
  residual kinase activity, SGK1: 41
[11]
  residual kinase activity, p38a MAPK: 74
[12]
  residual kinase activity, TrkA: 23
[13]
  residual kinase activity, SRPK1: 3
[14]
  residual kinase activity, PDK1: 98
[15]
  residual kinase activity, RIPK2: 12
[16]
  residual kinase activity, MARK3: 33
[17]
  residual kinase activity, EF2K: 107
[18]
  residual kinase activity, MKK2: 90
[19]
  residual kinase activity, PRK2: 27

## CC(=O)Nc1nc2cc(C(F)(F)F)ccc2s1 [Compound 03-73]
[1]
  remaining activity at 100 µM: 96%
[2]
  remaining activity at 100 µM: 10%
[3]
  remaining activity at 100 µM: 93%
[4]
  residual kinase activity, VEG-FR: 33
[5]
  remaining activity at 100 µM: 83%
[6]
  remaining activity at 100 µM: 106%
[7]
  remaining activity at 100 µM: 97%
[8]
  remaining activity at 100 µM: 74%
[9]
  remaining activity at 100 µM: 60%
[10]
  remaining activity at 100 µM: 77%
[11]
  remaining activity at 100 µM: 92%
[12]
  remaining activity at 100 µM: 74%
[13]
  remaining activity at 100 µM: 72%
[14]
  remaining activity at 100 µM: 105%
[15]
  remaining activity at 100 µM: 48%
[16]
  remaining activity at 100 µM: 63%
[17]
  remaining activity at 100 µM: 109%
[18]
  remaining activity at 100 µM: 98%
[19]
  remaining activity at 100 µM: 91%

## CC(=O)Nc1nc2cc(C)ccc2s1 [Compound 03-76]
[1]
  residual kinase activity, MKK1: 73
[2]
  residual kinase activity, PIM1: 21
[3]
  residual kinase activity, BTK: 92
[4]
  residual kinase activity, VEG-FR: 50
[5]
  residual kinase activity, JNK3: 76
[6]
  residual kinase activity, PKBa: 104
[7]
  residual kinase activity, p38b MAPK: 83
[8]
  residual kinase activity, Src: 79
[9]
  residual kinase activity, IRAK4: 51
[10]
  residual kinase activity, SGK1: 65
[11]
  residual kinase activity, p38a MAPK: 92
[12]
  residual kinase activity, TrkA: 56
[13]
  residual kinase activity, SRPK1: 73
[14]
  residual kinase activity, PDK1: 93
[15]
  residual kinase activity, RIPK2: 60
[16]
  residual kinase activity, MARK3: 71
[17]
  residual kinase activity, EF2K: 110
[18]
  residual kinase activity, MKK2: 155
[19]
  residual kinase activity, PRK2: 84

## CC(=O)Nc1nc2cc(F)ccc2s1 [Compound 03-77]
[1]
  remaining activity at 100 µM: 87%
[2]
  remaining activity at 100 µM: 19%
[3]
  remaining activity at 100 µM: 105%
[4]
  residual kinase activity, VEG-FR: 48
[5]
  remaining activity at 100 µM: 68%
[6]
  remaining activity at 100 µM: 95%
[7]
  remaining activity at 100 µM: 79%
[8]
  remaining activity at 100 µM: 80%
[9]
  remaining activity at 100 µM: 43%
[10]
  remaining activity at 100 µM: 66%
[11]
  remaining activity at 100 µM: 88%
[12]
  remaining activity at 100 µM: 59%
[13]
  remaining activity at 100 µM: 65%
[14]
  remaining activity at 100 µM: 91%
[15]
  remaining activity at 100 µM: 64%
[16]
  remaining activity at 100 µM: 58%
[17]
  remaining activity at 100 µM: 99%
[18]
  remaining activity at 100 µM: 101%
[19]
  remaining activity at 100 µM: 74%
